This passage reports IC50 results from US7598258B2, “Quinoline derivatives and quinazoline derivatives inhibiting autophosphorylation of macrophage colony stimulating factor receptor” (Kirin Beer Kabushiki Kaisha, priority 2002, dated 2009).

For the assay, the target named is T1, mouse c-fms (Mus musculus, UniProt P09581).
T1 construct: Macrophage-like cell line BAC-1.2F5 which expresses c-fms as a M-CSF receptor on cell membranes; endogenous in cells; host or cells: BAC-1.2F5 mouse macrophage-like cell line
T1 sequence (P09581 20-977): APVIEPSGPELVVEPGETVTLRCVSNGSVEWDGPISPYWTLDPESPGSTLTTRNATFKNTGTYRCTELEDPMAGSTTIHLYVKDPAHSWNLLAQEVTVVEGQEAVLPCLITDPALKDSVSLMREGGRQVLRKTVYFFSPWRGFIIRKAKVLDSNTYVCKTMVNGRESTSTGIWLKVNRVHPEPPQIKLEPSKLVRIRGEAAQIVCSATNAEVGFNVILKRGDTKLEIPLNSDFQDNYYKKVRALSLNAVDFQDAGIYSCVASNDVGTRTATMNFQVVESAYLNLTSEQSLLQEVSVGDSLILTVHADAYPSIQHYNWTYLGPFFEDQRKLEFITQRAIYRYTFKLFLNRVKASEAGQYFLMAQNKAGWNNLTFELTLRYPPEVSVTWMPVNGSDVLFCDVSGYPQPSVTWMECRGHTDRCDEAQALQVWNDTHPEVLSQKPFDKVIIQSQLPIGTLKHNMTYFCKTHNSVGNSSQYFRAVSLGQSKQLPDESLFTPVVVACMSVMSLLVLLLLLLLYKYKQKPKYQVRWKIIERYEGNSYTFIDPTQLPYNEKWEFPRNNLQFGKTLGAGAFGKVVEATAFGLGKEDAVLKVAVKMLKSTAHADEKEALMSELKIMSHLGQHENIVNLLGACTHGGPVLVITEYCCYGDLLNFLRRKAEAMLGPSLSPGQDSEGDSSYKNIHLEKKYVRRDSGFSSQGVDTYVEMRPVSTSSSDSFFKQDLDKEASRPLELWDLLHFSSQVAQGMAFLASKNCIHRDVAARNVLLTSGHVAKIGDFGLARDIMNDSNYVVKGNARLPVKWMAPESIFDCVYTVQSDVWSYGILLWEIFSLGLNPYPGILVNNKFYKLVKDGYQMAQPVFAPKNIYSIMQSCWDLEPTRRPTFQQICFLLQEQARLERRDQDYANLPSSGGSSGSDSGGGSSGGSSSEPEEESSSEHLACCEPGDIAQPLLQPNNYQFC
Description: Inhibition of c-fms autophosphorylation in macrophage-like cell line BAC-1.2F5 by M-CSF stimulation (ELISA). It is filed as cell-based. The settings on record: BAC-1.2F5 cells, human recombinant M-CSF 50 ng/ml, read-out: c-fms autophosphorylation 50% inhibitory concentration (IC50). The procedure, abridged: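 BAC-1.2F5 cells serum-starved (0.1% FCS) 12 h, preincubated with compound 1 h at 37° C, then stimulated 6 min with 50 ng/ml human recombinant M-CSF. Lysates captured on anti-phosphotyrosine plates, detected with anti-c-fms antiserum and peroxidase read-out at 450 nm. IC50 from inhibition normalised between ±M-CSF controls.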

Molecules are shown by their SMILES.

Consider `COc1cc2nccc(Oc3ccc(NC(=O)N[C@H](C)c4cccc(Br)c4)c(C(F)(F)F)c3)c2cc1OC` [Example 60, N-[(1R)-1-(3-Bromophenyl)ethyl]-N′-[4-[(6,7-dimethoxy-4-quinolyl)oxy]-2-(trifluoromethyl)phenyl]urea], for which the IC50 is 115 nM. The same measure for `COc1cc2nccc(Oc3ccc(NC(=O)NC(C)c4ccc(F)cc4)cc3F)c2cc1OC` (stereo not drawn) [Example 31, N-{4-[(6,7-Dimethoxy-4-quinolyl)oxy]-3-fluorophenyl}-N′-[1-(4-fluorophenyl)ethyl]urea]: 12.9 nM; for `COc1cc2nccc(Oc3ccc(NC(=O)N[C@@H](C)c4ccccc4OC)cc3)c2cc1OC` [Example 51, N-{4-[(6,7-Dimethoxy-4-quinolyl)oxy]phenyl}-N′-[(1S)-1-(2-methoxyphenyl)ethyl]urea]: 7.6 nM; for `COc1cc2nccc(Oc3ccc(NC(=O)N[C@@H](C)c4ccc(F)cc4)c(F)c3)c2cc1OC` [Example 29, N-{4-[(6,7-Dimethoxy-4-quinolyl)oxy]-2-fluorophenyl}-N′-[(1S)-1-(4-fluorophenyl)ethyl]urea]: 2.3 nM. On to `COc1cc2nccc(Oc3ccc(NC(=O)N[C@H](C)c4ccc(F)cc4)c(C)c3)c2cc1OC` [Example 15, N-{4-[(6,7-Dimethoxy-4-quinolyl)oxy]-2-methylphenyl}-N′-[(1R)-1-(4-fluorophenyl)ethyl]urea], for which the IC50 worked out at 5.7 nM.

For the compound `COc1cc2nccc(Oc3ccc(NC(=O)NC(C)c4nc(C)cs4)c(C(F)(F)F)c3)c2cc1OC` (stereo not drawn) [Example 92, N-[4-[(6,7-Dimethoxy-4-quinolyl)oxy]-2-(trifluoromethyl)phenyl]-N′-[1-(4-methyl-1,3-thiazol-2-yl)ethyl]urea], the IC50 was 8.4 nM.

In the case of `COc1cc2nccc(Oc3ccc(NC(=O)N[C@@H](C)c4nccs4)cc3OC)c2cc1OC` [Example 81, N-{4-[(6,7-Dimethoxy-4-quinolyl)oxy]-3-methoxyphenyl}-N′-[(1S)-1-(1,3-thiazol-2-yl)ethyl]urea], the IC50 was 6.2 nM. For `COc1cc2nccc(Oc3ccc(NC(=O)N[C@@H](C)c4ccc(F)cc4)c(Cl)c3)c2cc1OC` [Example 5, N-{2-Chloro-4-[(6,7-dimethoxy-4-quinolyl)oxy]phenyl}-N′-[(1S)-1-(4-fluorophenyl)ethyl]urea], the IC50 came to 2.2 nM. As for `COc1cc2nccc(Oc3ccc(NC(=O)N[C@H](C)c4cccc(Br)c4)cc3Cl)c2cc1OC` [Example 57, N-[(1R)-1-(3-Bromophenyl)ethyl]-N′-{3-chloro-4-[(6,7-dimethoxy-4-quinolyl)oxy]phenyl}urea], the IC50 is 128 nM.

As to `COc1cc2nccc(Oc3ccc(NC(=O)N[C@H](C)c4ccc(F)cc4)cc3Cl)c2cc1OC` [Example 12, N-{3-Chloro-4-[(6,7-dimethoxy-4-quinolyl)oxy]phenyl}-N′-[(1R)-1-(4-fluorophenyl)ethyl]urea], the IC50 is 10.9 nM. For `COc1ccc([C@@H](C)NC(=O)Nc2ccc(Oc3ccnc4cc(OC)c(OC)cc34)cc2)cc1` [Example 54, N-{4-[(6,7-Dimethoxy-4-quinolyl)oxy]phenyl}-N′-[(1R)-1-(4-methoxyphenyl)ethyl]urea], the IC50 was 69.5 nM.

Regarding `COc1cc2nccc(Oc3ccc(NC(=O)NC(C)c4ncc(C)s4)cc3)c2cc1OC` (stereo not drawn) [Example 100, N-{4-[(6,7-Dimethoxy-4-quinolyl)oxy]phenyl}-N′-[1-(5-methyl-1,3-thiazol-2-yl)ethyl]urea], the IC50 was 15.7 nM. The same measure for `COc1cc2nccc(Oc3ccc(NC(=O)NC(C)c4ccc(F)cc4)c(C(F)(F)F)c3)c2cc1OC` (stereo not drawn) [Example 19, N-[4-[(6,7-Dimethoxy-4-quinolyl)oxy]-2-(trifluoromethyl)phenyl]-N′-[1-(4-fluorophenyl)ethyl]urea]: 8.1 nM; for `COc1cc2nccc(Oc3ccc(NC(=O)N[C@H](C)c4ccccc4OC)cc3)c2cc1OC` [Example 52, N-{4-[(6,7-Dimethoxy-4-quinolyl)oxy]phenyl}-N′-[(1R)-1-(2-methoxyphenyl)ethyl]urea]: 5.5 nM; for `COc1cc2nccc(Oc3ccc(NC(=O)NC(C)c4ccc(F)cc4)cc3Cl)c2cc1OC` (stereo not drawn) [Example 10, N-{3-Chloro-4-[(6,7-dimethoxy-4-quinolyl)oxy]phenyl}-N′-[1-(4-fluorophenyl)ethyl]urea]: 7.1 nM. Take `COc1cc2nccc(Oc3ccc(NC(=O)NC(C)c4ccc(F)cc4)c(C)c3C)c2cc1OC` (stereo not drawn) [Example 25, N-{4-[(6,7-Dimethoxy-4-quinolyl)oxy]-2,3-dimethylphenyl}-N′-[1-(4-fluorophenyl)ethyl]urea]: the IC50 worked out at 21.9 nM.

As for `COc1cc2nccc(Oc3ccc(NC(=O)N[C@@H](C)c4nccs4)c(F)c3)c2cc1OC` [Example 71, N-{4-[(6,7-Dimethoxy-4-quinolyl)oxy]-2-fluorophenyl}-N′-[(1S)-1-(1,3-thiazol-2-yl)ethyl]urea], the IC50 came out at 3 nM. As to `COc1cc2nccc(Oc3ccc(NC(=O)N[C@H](C)c4ccc(F)cc4)cc3OC)c2cc1OC` [Example 24, N-{4-[(6,7-Dimethoxy-4-quinolyl)oxy]-3-methoxyphenyl}-N′-[(1R)-1-(4-fluorophenyl)ethyl]urea], the IC50 came out at 13.2 nM. As to `COc1cc2nccc(Oc3ccc(NC(=O)NC(C)c4ccc(F)cc4)cc3)c2cc1OC` (stereo not drawn) [Example 1, N-{4-[(6,7-Dimethoxy-4-quinolyl)oxy]phenyl}-N′-[1-(4-fluorophenyl)ethyl]urea], the IC50 came to 2.4 nM. The same measure for `COc1cc2nccc(Oc3cc(C)c(NC(=O)N[C@H](C)c4cccc(Br)c4)cc3C)c2cc1OC` [Example 56, N-[(1R)-1-(3-Bromophenyl)ethyl]-N′-{4-[(6,7-dimethoxy-4-quinolyl)oxy]-2,5-dimethylphenyl}urea]: 193 nM; for `COc1cc(Oc2ccnc3cc(OC)c(OC)cc23)ccc1NC(=O)N[C@H](C)c1cccc(Br)c1` [Example 59, N-[(1R)-1-(3-Bromophenyl)ethyl]-N′-{4-[(6,7-dimethoxy-4-quinolyl)oxy]-2-methoxyphenyl}urea]: 20.3 nM; for `COc1cc2nccc(Oc3ccc(NC(=O)NC(C)c4nc(C)cs4)cc3)c2cc1OC` (stereo not drawn) [Example 91, N-{4-[(6,7-Dimethoxy-4-quinolyl)oxy]phenyl}-N′-[1-(4-methyl-1,3-thiazol-2-yl)ethyl]urea]: 3.2 nM. In the case of `COc1cc(Oc2ccnc3cc(OC)c(OC)cc23)ccc1NC(=O)NC(C)c1ccc(F)cc1` (stereo not drawn) [Example 16, N-{4-[(6,7-Dimethoxy-4-quinolyl)oxy]-2-methoxyphenyl}-N′-[1-(4-fluorophenyl)ethyl]urea], the IC50 worked out at 2 nM.

Regarding `COc1cc(Oc2ccnc3cc(OC)c(OC)cc23)ccc1NC(=O)N[C@@H](C)c1ccc(F)cc1` [Example 17, N-{4-[(6,7-Dimethoxy-4-quinolyl)oxy]-2-methoxyphenyl}-N′-[(1S)-1-(4-fluorophenyl)ethyl]urea], the IC50 was determined as 3.9 nM.
